From article PMC9340768 (Journal of Medicinal Chemistry, 2022)
Blank lines part the entries; values can stand above or below the molecule they belong to. Starred links: 1 amine or outer side, 2 acyl side, 3 side chain; linkers in the order of their positions; H or OH if unused. Positions of bridges follow the written chain, without caps; N, C: chain ends. Non-standard residues stand in square brackets, D forms with d. Residues, ends and D or L forms follow the SMILES beside them. Chains are numbered I, II in the order given. TATA = O=C(CC[*:1])N1CN(C(=O)CC[*:2])CN(C(=O)CC[*:3])C1; X1 = O=C(CCc1cn(CCOCCOCCOCCOCCOCCC(=O)[*:2])nn1)[*:1]; 1Nal = N[C@@H](Cc1cccc2ccccc12)C(=O)O; Hyp = O=C(O)[C@@H]1C[C@@H](O)CN1; hArg = N=C(N)NCCCC[C@H](N)C(=O)O; tBuAla = CC(C)(C)C[C@H](N)C(=O)O; Nle = CCCC[C@H](N)C(=O)O

Experiments:
[1] = Pharmacokinetics in Sprague-Dawley rats; conditions: rat, in vivo, iv, 2 mg/kg
[2] = target: CD137 (Homo sapiens, UniProt Q07011+Q96NY8); assay: HT1376/CD137 reporter coculture assay; assay type: cell-based
Chain of CD137 (Q07011 24-255): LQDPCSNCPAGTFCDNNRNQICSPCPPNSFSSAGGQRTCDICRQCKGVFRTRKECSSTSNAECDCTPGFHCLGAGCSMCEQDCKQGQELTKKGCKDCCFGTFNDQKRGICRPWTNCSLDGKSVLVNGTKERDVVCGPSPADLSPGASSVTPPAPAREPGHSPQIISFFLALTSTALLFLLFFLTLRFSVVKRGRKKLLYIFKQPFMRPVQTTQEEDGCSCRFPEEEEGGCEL
Chain of CD137 (Q96NY8 32-510): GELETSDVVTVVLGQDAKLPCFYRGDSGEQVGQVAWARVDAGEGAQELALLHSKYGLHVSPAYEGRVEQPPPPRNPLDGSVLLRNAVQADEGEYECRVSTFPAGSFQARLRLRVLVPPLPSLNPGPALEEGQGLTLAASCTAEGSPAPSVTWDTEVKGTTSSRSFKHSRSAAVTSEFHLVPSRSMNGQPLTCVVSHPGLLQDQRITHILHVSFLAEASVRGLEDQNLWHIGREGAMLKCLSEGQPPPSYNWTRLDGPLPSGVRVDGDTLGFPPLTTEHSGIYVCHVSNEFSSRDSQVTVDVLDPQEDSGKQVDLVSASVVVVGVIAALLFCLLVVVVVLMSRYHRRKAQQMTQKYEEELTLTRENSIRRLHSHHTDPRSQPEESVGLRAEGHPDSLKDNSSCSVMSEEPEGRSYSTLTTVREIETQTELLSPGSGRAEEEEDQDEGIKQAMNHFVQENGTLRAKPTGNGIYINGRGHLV

SMILES: CCCC[C@@H]1NC(=O)[C@H](Cc2ccc(O)cc2)NC(=O)[C@@H]2CCCN2C(=O)[C@H](CC(=O)O)NC(=O)[C@H](C)NC(=O)[C@H](Cc2ccccc2)NC(=O)[C@@H]2CSCCC(=O)N3CN(CN(C3)C(=O)CCSC[C@H](NC(C)=O)C(=O)N[C@@H](CC(C)(C)C)C(=O)N[C@@H](CCC(=O)O)C(=O)N[C@@H](CCC(=O)O)C(=O)N[C@H](CCCCNC(=O)CCc3cn(CCOCCOCCOCCOCCOCCC(=O)N[C@H]4CSCCC(=O)N5CN6CN(C5)C(=O)CCSC[C@H](NC(=O)[C@@H](CC(=O)O)NC(=O)[C@H](Cc5cccc7ccccc57)NC(=O)[C@@H]5CCCN5C4=O)C(=O)N[C@@H](CCSC)C(=O)N[C@@H](CCCCNC(=N)N)C(=O)N[C@@H](CC(=O)O)C(=O)N[C@@H](Cc4c[nH]c5ccccc45)C(=O)N[C@@H](CO)C(=O)N[C@@H]([C@@H](C)O)C(=O)N4CCC[C@H]4C(=O)N4C[C@H](O)C[C@H]4C(=O)N[C@@H](Cc4c[nH]c5ccccc45)C(=O)N[C@H](C(N)=O)CSCCC6=O)nn3)C(=O)N3CCC[C@H]3C(=O)N[C@@H](Cc3ccc(O)cc3)C(=O)N2)C(=O)CCSC[C@@H](C(N)=O)NC1=O [BCY12377]
clearance ([1]; CL (mL/min/kg), SD rats, 2 mg/kg IV bolus): 7.8 mL/min/kg

SMILES: CCCC[C@@H]1NC(=O)[C@H](Cc2ccc(O)cc2)NC(=O)[C@@H]2CCCN2C(=O)[C@H](CC(=O)O)NC(=O)[C@H](C)NC(=O)[C@H](Cc2ccccc2)NC(=O)[C@@H]2CSCCC(=O)N3CN(CN(C3)C(=O)CCSC[C@@H](C(=O)N[C@@H](CNC(=O)CCc3cn(CC(=O)N[C@H]4CSCCC(=O)N5CN6CN(C5)C(=O)CCSC[C@H](NC(=O)[C@@H](CC(=O)O)NC(=O)[C@H](Cc5cccc7ccccc57)NC(=O)[C@@H]5CCCN5C4=O)C(=O)N[C@@H](CCSC)C(=O)N[C@@H](CCCCNC(=N)N)C(=O)N[C@@H](CC(=O)O)C(=O)N[C@@H](Cc4c[nH]c5ccccc45)C(=O)N[C@@H](CO)C(=O)N[C@@H]([C@@H](C)O)C(=O)N4CCC[C@H]4C(=O)N4C[C@H](O)C[C@H]4C(=O)N[C@@H](Cc4c[nH]c5ccccc45)C(=O)N[C@H](C(N)=O)CSCCC6=O)nn3)C(N)=O)NC1=O)C(=O)CCSC[C@H](NC(C)=O)C(=O)N[C@@H](CC(C)(C)C)C(=O)N1CCC[C@H]1C(=O)N[C@@H](CCC(=O)O)C(=O)N[C@H](C)C(=O)N1CCC[C@H]1C(=O)N[C@@H](Cc1ccc(O)cc1)C(=O)N2 [BCY11375]
improvement of EC50 ([2]; CD137 affinity improved from BCY9399 to BCY11375): 3.6 fold

SMILES: CCCC[C@@H]1NC(=O)[C@H](Cc2ccc(O)cc2)NC(=O)[C@@H]2CCCN2C(=O)[C@H](CC(=O)O)NC(=O)[C@H](C)NC(=O)[C@H](Cc2ccccc2)NC(=O)[C@@H]2CSCCC(=O)N3CN(CN(C3)C(=O)CCSC[C@@H](C(=O)N[C@@H](C)C(N)=O)NC1=O)C(=O)CCSC[C@H](NC(C)=O)C(=O)N[C@@H](CC(C)(C)C)C(=O)N1CCC[C@H]1C(=O)N[C@@H](CCC(=O)O)C(=O)N[C@H](CCCCNC(=O)CCc1cn(CCOCCOCCOCCOCCOCCOCCOCCOCCOCCOCCNC(=O)CCOCCN(CCOCCC(=O)NCCOCCOCCOCCOCCOCCOCCOCCOCCOCCOCCn3cc(CCC(=O)NCCCC[C@H]4NC(=O)[C@H](CCC(=O)O)NC(=O)[C@@H]5CCCN5C(=O)[C@H](CC(C)(C)C)NC(=O)[C@@H](NC(C)=O)CSCCC(=O)N5CN6CN(C5)C(=O)CCSC[C@H](NC(=O)[C@H](Cc5ccc(O)cc5)NC(=O)[C@@H]5CCCN5C4=O)C(=O)N[C@@H](Cc4ccccc4)C(=O)N[C@@H](C)C(=O)N[C@@H](CC(=O)O)C(=O)N4CCC[C@H]4C(=O)N[C@@H](Cc4ccc(O)cc4)C(=O)N[C@@H](CCCC)C(=O)N[C@H](C(=O)N[C@@H](C)C(N)=O)CSCCC6=O)nn3)CCOCCC(=O)NCCOCCOCCOCCOCCOCCOCCOCCOCCOCCOCCn3cc(CCC(=O)N[C@H]4CSCCC(=O)N5CN6CN(C5)C(=O)CCSC[C@H](NC(=O)[C@@H](CC(=O)O)NC(=O)[C@H](Cc5cccc7ccccc57)NC(=O)[C@@H]5CCCN5C4=O)C(=O)N[C@@H](CCSC)C(=O)N[C@@H](CCCCNC(=N)N)C(=O)N[C@@H](CC(=O)O)C(=O)N[C@@H](Cc4c[nH]c5ccccc45)C(=O)N[C@@H](CO)C(=O)N[C@@H]([C@@H](C)O)C(=O)N4CCC[C@H]4C(=O)N4C[C@H](O)C[C@H]4C(=O)N[C@@H](Cc4c[nH]c5ccccc45)C(=O)N[C@H](C(N)=O)CSCCC6=O)nn3)nn1)C(=O)N1CCC[C@H]1C(=O)N[C@@H](Cc1ccc(O)cc1)C(=O)N2 [BCY11027]
half-life [1]: 35.4 min

SMILES: CCCC[C@@H]1NC(=O)[C@H](Cc2ccc(O)cc2)NC(=O)[C@@H]2CCCN2C(=O)[C@H](CC(=O)O)NC(=O)[C@H](C)NC(=O)[C@H](Cc2ccccc2)NC(=O)[C@@H]2CSCCC(=O)N3CN(CN(C3)C(=O)CCSC[C@@H](C(=O)N[C@@H](C)C(N)=O)NC1=O)C(=O)CCSC[C@H](NC(C)=O)C(=O)N[C@@H](CC(C)(C)C)C(=O)N1CCC[C@H]1C(=O)N[C@@H](CCCCNC(=O)CCc1cn(CCOCCOCCOCCOCCOCCC(=O)N[C@H]3CSCCC(=O)N4CN5CN(C4)C(=O)CCSC[C@H](NC(=O)[C@@H](CC(=O)O)NC(=O)[C@H](Cc4cccc6ccccc46)NC(=O)[C@@H]4CCCN4C3=O)C(=O)N[C@@H](CCSC)C(=O)N[C@@H](CCCCNC(=N)N)C(=O)N[C@@H](CC(=O)O)C(=O)N[C@@H](Cc3c[nH]c4ccccc34)C(=O)N[C@@H](CO)C(=O)N[C@@H]([C@@H](C)O)C(=O)N3CCC[C@H]3C(=O)N3C[C@H](O)C[C@H]3C(=O)N[C@@H](Cc3c[nH]c4ccccc34)C(=O)N[C@H](C(N)=O)CSCCC5=O)nn1)C(=O)N[C@H](C)C(=O)N1CCC[C@H]1C(=O)N[C@@H](Cc1ccc(O)cc1)C(=O)N2 [BCY10571]
EC50 relative to similar compounds ([2]; vs dLys4 (BCY10572) or C-terminal Dap (BCY10573) attachment): two- to threefold weaker

Next, values leading:

fold more potent than the 1:2 format ([2]; 2:2 molecule vs 1:2 format): 2.9 fold
SMILES: CCCC[C@@H]1NC(=O)[C@H](Cc2ccc(O)cc2)NC(=O)[C@@H]2CCCN2C(=O)[C@H](CC(=O)O)NC(=O)[C@H](C)NC(=O)[C@H](Cc2ccccc2)NC(=O)[C@@H]2CSCCC(=O)N3CN(CN(C3)C(=O)CCSC[C@@H](C(=O)N[C@@H](C)C(N)=O)NC1=O)C(=O)CCSC[C@H](NC(C)=O)C(=O)N[C@@H](CC(C)(C)C)C(=O)N1CCC[C@H]1C(=O)N[C@@H](CCC(=O)O)C(=O)N[C@H](CCCCNC(=O)CCc1cn(CCOCCOCCOCCN(CCOCCOCCOCCn3cc(CCC(=O)NCCCC[C@H]4NC(=O)[C@H](CCC(=O)O)NC(=O)[C@@H]5CCCN5C(=O)[C@H](CC(C)(C)C)NC(=O)[C@@H](NC(C)=O)CSCCC(=O)N5CN6CN(C5)C(=O)CCSC[C@H](NC(=O)[C@H](Cc5ccc(O)cc5)NC(=O)[C@@H]5CCCN5C4=O)C(=O)N[C@@H](Cc4ccccc4)C(=O)N[C@@H](C)C(=O)N[C@@H](CC(=O)O)C(=O)N4CCC[C@H]4C(=O)N[C@@H](Cc4ccc(O)cc4)C(=O)N[C@@H](CCCC)C(=O)N[C@H](C(=O)N[C@@H](C)C(N)=O)CSCCC6=O)nn3)CCOCCOCCOCC(=O)NCCCNC(=O)Cn3cc(CCC(=O)NCCCNC(=O)COCCOCCOCCN(CCOCCOCCOCCn4cc(CCC(=O)NCCC(=O)N[C@H]5CSCCC(=O)N6CN7CN(C6)C(=O)CCSC[C@H](NC(=O)[C@@H](CC(=O)O)NC(=O)[C@H](Cc6cccc8ccccc68)NC(=O)[C@@H]6CCCN6C5=O)C(=O)N[C@@H](CCSC)C(=O)N[C@@H](CCCCNC(=N)N)C(=O)N[C@@H](CC(=O)O)C(=O)N[C@@H](Cc5c[nH]c6ccccc56)C(=O)N[C@@H](CO)C(=O)N[C@@H]([C@@H](C)O)C(=O)N5CCC[C@H]5C(=O)N5C[C@H](O)C[C@H]5C(=O)N[C@@H](Cc5c[nH]c6ccccc56)C(=O)N[C@H](C(N)=O)CSCCC7=O)nn4)CCOCCOCCOCCn4cc(CCC(=O)NCCC(=O)N[C@H]5CSCCC(=O)N6CN7CN(C6)C(=O)CCSC[C@H](NC(=O)[C@@H](CC(=O)O)NC(=O)[C@H](Cc6cccc8ccccc68)NC(=O)[C@@H]6CCCN6C5=O)C(=O)N[C@@H](CCSC)C(=O)N[C@@H](CCCCNC(=N)N)C(=O)N[C@@H](CC(=O)O)C(=O)N[C@@H](Cc5c[nH]c6ccccc56)C(=O)N[C@@H](CO)C(=O)N[C@@H]([C@@H](C)O)C(=O)N5CCC[C@H]5C(=O)N5C[C@H](O)C[C@H]5C(=O)N[C@@H](Cc5c[nH]c6ccccc56)C(=O)N[C@H](C(N)=O)CSCCC7=O)nn4)nn3)nn1)C(=O)N1CCC[C@H]1C(=O)N[C@@H](Cc1ccc(O)cc1)C(=O)N2 [BCY12970]

improvement of EC50 ([2]; Nectin-4 affinity improved from BCY11858 to BCY12579): 12 fold
SMILES: CCCC[C@@H]1NC(=O)[C@H](Cc2ccc(O)cc2)NC(=O)[C@@H]2CCCN2C(=O)[C@H](CC(=O)O)NC(=O)[C@H](C)NC(=O)[C@H](Cc2ccccc2)NC(=O)[C@@H]2CSCCC(=O)N3CN(CN(C3)C(=O)CCSC[C@@H](C(=O)N[C@@H](C)C(N)=O)NC1=O)C(=O)CCSC[C@H](NC(C)=O)C(=O)N[C@@H](CC(C)(C)C)C(=O)N1CCC[C@H]1C(=O)N[C@@H](CCC(=O)O)C(=O)N[C@H](CCCCNC(=O)CCc1cn(CCOCCOCCOCCOCCOCCC(=O)NCCCC[C@H]3NC(=O)[C@H](Cc4cccc5ccccc45)NC(=O)[C@@H]4CCCN4C(=O)[C@@H](NC(C)=O)CSCCC(=O)N4CN5CN(C4)C(=O)CCSC[C@H](NC3=O)C(=O)N[C@@H](CCSC)C(=O)N[C@@H](CCCCNC(=N)N)C(=O)N[C@@H](Cc3c[nH]cn3)C(=O)N[C@@H](Cc3c[nH]c4ccccc34)C(=O)N[C@@H](CO)C(=O)N[C@@H]([C@@H](C)O)C(=O)N3CCC[C@H]3C(=O)N3C[C@H](O)C[C@H]3C(=O)N[C@@H](Cc3c[nH]c4ccccc34)C(=O)N[C@H](C(N)=O)CSCCC5=O)nn1)C(=O)N1CCC[C@H]1C(=O)N[C@@H](Cc1ccc(O)cc1)C(=O)N2 [BCY12579] (I: Ac-C[tBuAla]PE[dK]PYCFADPY[Nle]CA-NH2 / II: Ac-CP[1Nal][dK]CM[hArg]HWSTP[Hyp]WC-NH2; linker I:1-I:8-I:15, II:1-II:5-II:15 via TATA; linker I:5-II:4 via X1)
